# Legend:
# Histone deacetylase 2 = Histone deacetylase 2 (Homo sapiens, UniProt Q92769); test: Inhibition of HDAC2 (unknown origin)
# [1] = Cytotoxicity against human MCF-10F cells; type: toxicity, cell-based
# [2] = Selectivity index, ratio of IC50 for cytotoxicity against human MCF-10A cells to IC50 for cytotoxicity against human MCF7 cells; type: toxicity, cell-based; conditions: MCF-10A cells and MCF7 cells, read-out: Ratio IC50
# Histone deacetylase 1 = Histone deacetylase 1 (Homo sapiens, UniProt Q13547); test: Inhibition of HDAC1 (unknown origin)
# [3] = Selectivity index, ratio of IC50 for cytotoxicity against human MCF-10A cells to IC50 for cytotoxicity against human A549 cells; type: toxicity, cell-based; conditions: MCF-10A cells and A549 cells, read-out: Ratio IC50
# [4] = Selectivity index, ratio of IC50 for cytotoxicity against human MCF-10F cells to IC50 for cytotoxicity against human A549 cells; type: toxicity, cell-based; conditions: MCF-10F cells and A549 cells, read-out: Ratio IC50
# [5] = Selectivity index, ratio of IC50 for cytotoxicity against human BEAS-2B cells to IC50 for cytotoxicity against human MCF7 cells; type: toxicity, cell-based; conditions: BEAS-2B cells and MCF7 cells, read-out: Ratio IC50
# MCF7 [6] = test: Cytotoxicity against human MCF7 cells assessed as inhibition of cell growth by MTT assay; type: functional, cell-based
# A549 [7] = test: Potency index, ratio of vorinostat IC50 to test compound IC50 for cytotoxicity against human A549 cells assessed as inhibition of cell growth by MTT assay; type: functional
# [8] = Selectivity index, ratio of IC50 for cytotoxicity against human MCF-10A cells to IC50 for cytotoxicity against human MDA-MB-231 cells; type: toxicity, cell-based; conditions: MCF-10A cells and MDA-MB-231 cells, read-out: Ratio IC50
# [9] = Selectivity index, ratio of IC50 for cytotoxicity against human MCF-10F cells to IC50 for cytotoxicity against human MCF7 cells; type: toxicity, cell-based; conditions: MCF-10F cells and MCF7 cells, read-out: Ratio IC50
# [10] = Selectivity index, ratio of IC50 for cytotoxicity against human BEAS-2B cells to IC50 for cytotoxicity against human MDA-MB-231 cells; type: toxicity, cell-based; conditions: BEAS-2B cells and MDA-MB-231 cells, read-out: Ratio IC50
# [11] = Cytotoxicity against human BEAS-2B cells; type: toxicity, cell-based
# MDA-MB-231 [12] = test: Potency index, ratio of vorinostat IC50 to test compound IC50 for cytotoxicity against human MDA-MB-231 cells assessed as inhibition of cell growth by MTT assay; type: functional
# Histone deacetylase 8 = Histone deacetylase 8 (Homo sapiens, UniProt Q9BY41); test: Inhibition of HDAC8 (unknown origin)
# [13] = Selectivity index, ratio of IC50 for cytotoxicity against human BEAS-2B cells to IC50 for cytotoxicity against human A549 cells; type: toxicity, cell-based; conditions: BEAS-2B cells and A549 cells, read-out: Ratio IC50
# MDA-MB-231 [14] = test: Antitumor activity against human MDA-MB-231 cells xenografted in mouse assessed as reduction on tumor volume at 20 mg/kg, ip relative to control; type: functional; parameters: scale not given: the % may be the effect or the level left
# [15] = Selectivity index, ratio of IC50 for cytotoxicity against human MCF-10F cells to IC50 for cytotoxicity against human MDA-MB-231 cells; type: toxicity, cell-based; conditions: MCF-10F cells and MDA-MB-231 cells, read-out: Ratio IC50
# MDA-MB-231 [16] = test: Cytotoxicity against human MDA-MB-231 cells assessed as inhibition of cell growth by MTT assay; type: functional, cell-based
# A549 [17] = test: Cytotoxicity against human A549 cells assessed as inhibition of cell growth by MTT assay; type: functional, cell-based
# [18] = target: T1, Protein deacetylase HDAC6 (Homo sapiens, UniProt Q9UBN7); test: Inhibition of HDAC6 (unknown origin)
# T1 sequence (Q9UBN7 whole entry): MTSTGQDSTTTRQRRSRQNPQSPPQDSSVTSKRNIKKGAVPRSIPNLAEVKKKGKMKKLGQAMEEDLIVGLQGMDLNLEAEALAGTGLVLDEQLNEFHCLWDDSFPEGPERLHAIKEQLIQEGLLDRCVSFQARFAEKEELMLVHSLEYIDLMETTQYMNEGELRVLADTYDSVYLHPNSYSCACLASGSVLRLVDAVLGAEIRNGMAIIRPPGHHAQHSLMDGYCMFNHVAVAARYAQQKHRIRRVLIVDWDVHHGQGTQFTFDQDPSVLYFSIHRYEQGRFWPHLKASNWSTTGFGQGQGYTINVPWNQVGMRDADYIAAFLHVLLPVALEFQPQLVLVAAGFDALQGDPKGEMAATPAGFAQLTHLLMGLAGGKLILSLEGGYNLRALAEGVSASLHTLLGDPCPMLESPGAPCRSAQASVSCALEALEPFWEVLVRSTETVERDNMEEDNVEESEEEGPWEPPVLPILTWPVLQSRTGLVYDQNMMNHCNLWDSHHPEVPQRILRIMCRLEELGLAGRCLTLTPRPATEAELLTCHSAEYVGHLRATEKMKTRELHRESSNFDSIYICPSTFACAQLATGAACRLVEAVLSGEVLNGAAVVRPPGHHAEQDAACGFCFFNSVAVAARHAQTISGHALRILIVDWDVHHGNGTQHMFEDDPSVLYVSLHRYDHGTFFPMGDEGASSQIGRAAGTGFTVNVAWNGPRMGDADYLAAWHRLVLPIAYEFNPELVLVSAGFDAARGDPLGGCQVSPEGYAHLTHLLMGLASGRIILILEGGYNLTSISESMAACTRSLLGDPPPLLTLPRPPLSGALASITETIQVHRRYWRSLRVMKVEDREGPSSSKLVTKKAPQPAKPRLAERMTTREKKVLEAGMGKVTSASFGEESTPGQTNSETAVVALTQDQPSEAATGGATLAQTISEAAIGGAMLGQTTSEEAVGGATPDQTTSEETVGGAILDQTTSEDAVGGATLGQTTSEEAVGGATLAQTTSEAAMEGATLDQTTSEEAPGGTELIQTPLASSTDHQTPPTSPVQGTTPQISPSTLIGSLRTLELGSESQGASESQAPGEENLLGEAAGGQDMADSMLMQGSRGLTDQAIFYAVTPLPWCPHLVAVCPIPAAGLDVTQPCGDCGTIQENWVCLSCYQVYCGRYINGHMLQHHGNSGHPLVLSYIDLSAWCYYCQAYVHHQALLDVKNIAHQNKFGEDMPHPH
# MCF7 [19] = test: Potency index, ratio of vorinostat IC50 to test compound IC50 for cytotoxicity against human MCF7 cells assessed as inhibition of cell growth by MTT assay; type: functional
# [20] = Cytotoxicity against human MCF-10A cells; type: toxicity, cell-based
# HL-60 = test: Antiproliferative activity against human HL-60 cells assessed as inhibition of cell growth by MTT assay; type: functional, cell-based
# [21] = Cytotoxicity against human HuT 102 cells assessed as inhibition of cell growth by MTT assay; type: functional, cell-based
# A549 [22] = test: Antitumor activity against human A549 cells xenografted in mouse assessed as inhibition of tumor growth at 30 mg/kg, ip relative to control; type: functional
# Histone deacetylase 3 = Histone deacetylase 3 (Homo sapiens, UniProt O15379); test: Inhibition of HDAC3 (unknown origin)
# Chain of Histone deacetylase 3 (O15379 whole entry): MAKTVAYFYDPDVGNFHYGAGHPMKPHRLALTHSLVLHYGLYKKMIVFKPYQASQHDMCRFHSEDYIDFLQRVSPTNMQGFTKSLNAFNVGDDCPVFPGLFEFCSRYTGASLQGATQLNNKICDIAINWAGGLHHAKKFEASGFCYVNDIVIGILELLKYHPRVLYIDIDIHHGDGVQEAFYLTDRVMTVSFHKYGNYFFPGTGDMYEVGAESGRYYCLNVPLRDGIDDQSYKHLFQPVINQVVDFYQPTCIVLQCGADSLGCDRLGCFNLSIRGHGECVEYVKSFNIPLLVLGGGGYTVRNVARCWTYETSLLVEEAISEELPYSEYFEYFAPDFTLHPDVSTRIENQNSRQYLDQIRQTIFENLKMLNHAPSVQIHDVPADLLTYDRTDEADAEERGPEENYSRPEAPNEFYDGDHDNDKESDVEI
# Chain of Histone deacetylase 1 (Q13547 whole entry): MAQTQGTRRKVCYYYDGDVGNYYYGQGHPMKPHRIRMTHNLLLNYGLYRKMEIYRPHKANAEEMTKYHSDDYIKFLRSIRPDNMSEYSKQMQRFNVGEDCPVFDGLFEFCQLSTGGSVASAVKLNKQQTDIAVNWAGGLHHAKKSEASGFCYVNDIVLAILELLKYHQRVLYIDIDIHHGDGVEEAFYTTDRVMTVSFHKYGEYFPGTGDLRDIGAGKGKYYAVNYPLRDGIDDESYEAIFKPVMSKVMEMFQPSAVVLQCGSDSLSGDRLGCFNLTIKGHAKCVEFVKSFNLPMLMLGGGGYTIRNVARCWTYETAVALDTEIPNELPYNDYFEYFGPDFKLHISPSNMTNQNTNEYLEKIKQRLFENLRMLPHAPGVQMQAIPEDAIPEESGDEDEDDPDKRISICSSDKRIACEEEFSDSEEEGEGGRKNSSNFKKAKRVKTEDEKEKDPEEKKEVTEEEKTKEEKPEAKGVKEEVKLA
# Chain of Histone deacetylase 8 (Q9BY41 whole entry): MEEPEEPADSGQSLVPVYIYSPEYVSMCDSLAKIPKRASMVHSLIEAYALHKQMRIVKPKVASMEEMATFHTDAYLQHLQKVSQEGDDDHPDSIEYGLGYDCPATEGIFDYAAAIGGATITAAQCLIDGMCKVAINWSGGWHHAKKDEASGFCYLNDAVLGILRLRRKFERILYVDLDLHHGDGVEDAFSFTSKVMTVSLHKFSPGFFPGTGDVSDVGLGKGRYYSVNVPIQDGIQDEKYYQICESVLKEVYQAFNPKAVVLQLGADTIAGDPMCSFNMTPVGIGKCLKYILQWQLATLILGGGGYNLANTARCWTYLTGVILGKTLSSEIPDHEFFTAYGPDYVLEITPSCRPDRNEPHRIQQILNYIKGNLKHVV
# Chain of Histone deacetylase 2 (Q92769 whole entry): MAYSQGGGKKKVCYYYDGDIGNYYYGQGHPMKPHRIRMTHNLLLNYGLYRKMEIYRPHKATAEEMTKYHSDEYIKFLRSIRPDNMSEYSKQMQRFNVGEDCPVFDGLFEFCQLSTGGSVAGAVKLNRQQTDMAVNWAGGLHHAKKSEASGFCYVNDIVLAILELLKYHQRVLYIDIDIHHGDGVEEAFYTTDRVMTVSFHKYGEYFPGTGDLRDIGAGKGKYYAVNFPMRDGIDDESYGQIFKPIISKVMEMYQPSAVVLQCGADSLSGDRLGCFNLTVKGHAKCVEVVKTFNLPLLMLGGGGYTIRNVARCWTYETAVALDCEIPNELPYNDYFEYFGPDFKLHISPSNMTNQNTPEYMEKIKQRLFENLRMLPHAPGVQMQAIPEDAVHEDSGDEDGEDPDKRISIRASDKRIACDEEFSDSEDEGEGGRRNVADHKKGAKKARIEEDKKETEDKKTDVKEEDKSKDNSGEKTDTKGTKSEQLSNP
structure (smiles),measurement,setting,value
O=C(CCCCCC(=O)N(Cc1ccc(Br)s1)c1ccc(OCCN2CCOCC2)cc1)NO,IC50,Histone deacetylase 2,1.14 nM
same,IC50,[1],> 100000 nM
same,selectivity ratio,[2],> 16.2
same,IC50,Histone deacetylase 1,1.14 nM
same,selectivity ratio,[3],> 16.2
same,selectivity ratio,[4],> 16.2
same,selectivity ratio,[5],> 16.2
same,IC50,MCF7 [6],620 nM
same,Ratio IC50,A549 [7],3.7
same,selectivity ratio,[8],> 16.2
same,selectivity ratio,[9],> 16.2
same,selectivity ratio,[10],> 16.2
same,IC50,[11],> 100000 nM
same,Ratio IC50,MDA-MB-231 [12],3.7
same,IC50,Histone deacetylase 8,1.14 nM
same,selectivity ratio,[13],> 16.2
same,Activity,MDA-MB-231 [14],93%
same,selectivity ratio,[15],> 16.2
same,IC50,MDA-MB-231 [16],620 nM
same,IC50,A549 [17],620 nM
same,IC50,[18],1.14 nM
same,Ratio IC50,MCF7 [19],3.7
same,IC50,[20],> 100000 nM
O=C(/C=C/c1ccc(S(=O)(=O)Nc2cc(F)cc(F)c2)cc1)NO,IC50,HL-60,770 nM
same,IC50,Histone deacetylase 1,5.2 nM
same,IC50,[21],770 nM
same,inhibition in vivo at 30 mg/kg,A549 [22],41.5%
same,IC50,[18],5.2 nM
same,IC50,Histone deacetylase 3,5.2 nM
